# Test results: patent US20230146455A1, “TREATMENT OF INFLAMMATORY DISEASES WITH PEPTIDES AND PHARMACEUTICAL COMPOSITIONS” (Yuyu Pharma, Inc., priority 2020, published 2023)
# Values joined by “and” are separate entries in the source; they are usually repeats but may differ in a detail not shown here. Equal entries are not always repeated. Where a SMILES comes first, the peptide text is derived from it. [ ]: non-standard residue; d: D form. Hyp = O=C(O)[C@@H]1C[C@@H](O)CN1
# Key:
# [1] = test system: CCL2/MCP-1; test: Example 8 main study Luminex, LPS hPBMCs: CCL2/MCP-1; assay type: cell-based, human; details: for CCL2/MCP-1 Concentration: single replicates
# Description: (§1) Human PBMCs were pretreated with YY-101, YDE-011, YDE-043 or reference compound; Xiidra® at various concentration (ranging from […] to 500 nM) for 2 h before stimulation. An equal volume of 0.5% DMSO was used as a vehicle control. Then, the cells were treated with LPS at 5 ug/ml, which was selected based on the pilot study. The supernatants from treated cells were harvested at 24 h and placed in a 96 well for Luminex cytokine & chemokine profiling using a Luminex 200 multiplex assay (Luminex; R&D system, USA).
# (§2) The main study arm with triplicate wells per group in a 24-well plate: • 1. Blank • 2. PBMC: 0.5% DMSO • 3. PBMC+LPS (5 ug/ml) • 4. PBMC+YY-101 500 nM • 5. PBMC+YY-101 50 nM • 6. PBMC+YY-101 5 nM • 7. PBMC+YY-101 0.5 nM • 8. PBMC+LPS (5 ug/ml)+Xiidra® 500 nM • 9. PBMC+LPS (5 ug/ml)+Xiidra® 50 nM • 10. PBMC+LPS (5 ug/ml)+Xiidra® 5 nM • 11. PBMC+LPS (5 ug/ml)+Xiidra® 0.5 nM • 12. PBMC+LPS (5 ug/ml)+Xiidra® 0.05 nM • 13. PBMC+LPS (5 ug/ml)+Xiidra® 0.005 nM • 14. PBMC+LPS (5 ug/ml)+YY-101 500 nM • 15. PBMC+LPS (5 ug/ml)+YY-101 50 nM • 16. PBMC+LPS (5 ug/ml)+YY-101 5 nM • 17. PBMC+LPS (5 ug/ml)+YY-101 0.5 nM • 18. PBMC+LPS (5 ug/ml)+YY-101 0.05 nM • 19. PBMC+LPS (5 ug/ml)+YY-101 0.005 nM • 20. PBMC+LPS (5 ug/ml)+YDE-011 500 nM • 21. PBMC+LPS (5 ug/ml)+YDE-011 50 nM • 22. PBMC+LPS (5 ug/ml)+YDE-011 5 nM • 23. PBMC+LPS (5 ug/ml)+YDE-011 0.5 nM • 24. PBMC+LPS (5 ug/ml)+YDE-011 0.05 nM • 25. PBMC+LPS (5 ug/ml)+YDE-011 0.005 nM • 26. PBMC+LPS (5 ug/ml)+YDE-043 500 nM • 27. PBMC+LPS (5 ug/ml)+YDE-043 50 nM • 28. PBMC+LPS (5 ug/ml)+YDE-043 5 nM • 29. PBMC+LPS (5 ug/ml)+YDE-043 0.5 nM • 30. PBMC+LPS (5 ug/ml)+YDE-043 0.05 nM • 31. PBMC+LPS (5 ug/ml)+YDE-043 0.005 nM
# (§3) Multiplex assay was used to measure 30 cytokines and chemokines. The 1:200 diluted cell supernatant and serial dilution of the standard were dispensed into a 96 well plate at 50 ul/well. Then, the pre-mixed cocktail of antibody-coated magnetic beads was dispensed at 50 ul/well and incubated at room temperature for 2 h in a horizontal orbital microplate shaker at 800±500 rpm. The beads were washed using a magnetic device to prevent loss. The biotin-antibody was dispensed in 50 ul of each well and incubated at room temperature for 1 h in a shaker at 800±500 rpm. After washing, streptavidin-PE was added at 50 ul/well and incubated at room temperature for 30 min in a shaker under the same conditions. Finally, after washing, wash buffer (100 ul/well) was added to the plate and incubated in a shaker for 2 min. The Luminex™ 200 setting were set according to the manufacturer's protocol. The data was calculated with a standard five-parameter logistic nonlinear regression analysis of the data (xPonent software 4.2, USA). Results were presented as concentration (ng/ml or pg/ml).
# [2] = test system: CCL4/MIP-1 beta; test: Example 8 main study Luminex, LPS hPBMCs: CCL4/MIP-1 beta; assay type: cell-based, human
# Description: as §1, §2, §3
# [3] = PBMC + LPS(5 ug/ml) + YY101 0.005 nM
# [4] = PBMC + LPS(5 ug/ml) + YY101 0.05 nM
# [5] = PBMC + LPS(5 ug/ml) + YY101 0.5 nM
# [6] = PBMC + LPS(5 ug/ml) + YY101 5 nM
# [7] = PBMC + LPS(5 ug/ml) + YY101 50 nM
# [8] = PBMC + LPS(5 ug/ml) + YY101 500 nM
# [9] = at as low as 5 μM, LPS 5 ug/mL 24 hrs
# [10] = PBMC + LPS(5 ug/ml) + test article 0.005 nM, Mean
# [11] = PBMC + LPS(5 ug/ml) + test article 0.005 nM, single replicates
# [12] = PBMC + LPS(5 ug/ml) + test article 0.05 nM, Mean
# [13] = PBMC + LPS(5 ug/ml) + test article 0.05 nM, single replicates
# [14] = PBMC + LPS(5 ug/ml) + test article 0.5 nM, Mean
# [15] = PBMC + LPS(5 ug/ml) + test article 0.5 nM, single replicates
# [16] = PBMC + LPS(5 ug/ml) + test article 5 nM, Mean
# [17] = PBMC + LPS(5 ug/ml) + test article 5 nM, single replicates
# [18] = PBMC + LPS(5 ug/ml) + test article 50 nM, Mean
# [19] = PBMC + LPS(5 ug/ml) + test article 50 nM, single replicates
# [20] = PBMC + LPS(5 ug/ml) + test article 500 nM, Mean
# [21] = PBMC + LPS(5 ug/ml) + test article 500 nM, single replicates
# [22] = PBMC + test article 0.5 nM, no LPS, single replicates
# [23] = PBMC + test article 5 nM, no LPS, single replicates
# [24] = PBMC + test article 0.05 uM, no LPS, single replicates
# [25] = PBMC + test article 50 nM, no LPS, single replicates
# [26] = PBMC + test article 500 nM, no LPS, single replicates
compound,measurement,setting,value
CC(C)C[C@H](NC(=O)CNC(=O)[C@H](CC(=O)O)NC(=O)[C@H](CCC(N)=O)NC(=O)CNC(=O)[C@@H]1C[C@@H](O)CN1)C(=O)N[C@@H](C)C(=O)NCC(=O)N1CCC[C@H]1C(=O)N[C@@H](CCCCN)C(=O)O [YY-101] (H-[Hyp]GQDGLAGPK-OH; N-terminus and C-terminus assumed),"CCL2/MCP-1 Concentration, Mean",[1]; [3],4528.1 pg/mL
same,CCL2/MCP-1 Concentration,[1]; [3],4528.4 pg/mL and 4630.2 pg/mL and 4425.5 pg/mL
same,"CCL2/MCP-1 Concentration, Mean",[1]; [4],4596.0 pg/mL
same,CCL2/MCP-1 Concentration,[1]; [4],4528.4 pg/ml (2×) and 4731.0 pg/ml
same,"CCL2/MCP-1 Concentration, Mean",[1]; [5],4596.3 pg/mL
same,CCL2/MCP-1 Concentration,[1]; [5],4630.2 pg/ml (2×) and 4528.4 pg/ml
same,"CCL2/MCP-1 Concentration, Mean",[1]; [6],4629.9 pg/mL
same,CCL2/MCP-1 Concentration,[1]; [6],4630.2 pg/mL and 4528.4 pg/mL and 4731.0 pg/mL
same,"CCL2/MCP-1 Concentration, Mean",[1]; [7],4613.3 pg/mL
same,CCL2/MCP-1 Concentration,[1]; [7],4579.5 pg/ml and 4630.2 pg/ml (2×)
same,"CCL2/MCP-1 Concentration, Mean",[1]; [8],4459.8 pg/mL
same,CCL2/MCP-1 Concentration,[1]; [8],4425.5 pg/ml (2×) and 4528.4 pg/ml
same,"CCL2/MCP-1 Concentration, Mean","[1]; PBMC + YY101 0.5 nM, no LPS",4679.6 pg/mL
same,CCL2/MCP-1 Concentration,"[1]; PBMC + YY101 0.5 nM, no LPS",4528.4 pg/mL and 4830.8 pg/mL
same,"CCL2/MCP-1 Concentration, Mean","[1]; PBMC + YY101 5 nM, no LPS",4425.5 pg/mL
same,CCL2/MCP-1 Concentration,"[1]; PBMC + YY101 5 nM, no LPS",4425.5 pg/mL
same,"CCL2/MCP-1 Concentration, Mean","[1]; PBMC + YY101 0.05 uM, no LPS",5025.5 pg/mL
same,CCL2/MCP-1 Concentration,"[1]; PBMC + YY101 0.05 uM, no LPS",5782.0 pg/mL and 4269.1 pg/mL
same,"CCL2/MCP-1 Concentration, Mean","[1]; PBMC + YY101 50 nM, no LPS",4373.5 pg/mL
same,CCL2/MCP-1 Concentration,"[1]; PBMC + YY101 50 nM, no LPS",4321.5 pg/mL and 4425.5 pg/mL
same,"CCL2/MCP-1 Concentration, Mean","[1]; PBMC + YY101 500 nM, no LPS",4475.9 pg/mL
same,CCL2/MCP-1 Concentration,"[1]; PBMC + YY101 500 nM, no LPS",4321.5 pg/mL and 4630.2 pg/mL
same,LPS-induced CCL-2 (in words),[1]; [9],significantly reduced
same,CCL4/MIP-1 beta Concentration,[2]; [10],21677.4 pg/mL
same,CCL4/MIP-1 beta MFI,[2]; [10],12.7
same,CCL4/MIP-1 beta Concentration,[2]; [11],25629.7 pg/ml and 19701.2 pg/ml (2×)
same,CCL4/MIP-1 beta MFI,[2]; [11],14.0 and 12.0 (2×)
same,CCL4/MIP-1 beta Concentration,[2]; [12],21011.4 pg/mL
same,CCL4/MIP-1 beta MFI,[2]; [12],12.5
same,CCL4/MIP-1 beta Concentration,[2]; [13],25629.7 pg/mL and 17703.4 pg/mL and 19701.2 pg/mL
same,CCL4/MIP-1 beta MFI,[2]; [13],14.0 and 11.5 and 12.0
same,CCL4/MIP-1 beta Concentration,[2]; [14],21011.4 pg/mL
same,CCL4/MIP-1 beta MFI,[2]; [14],12.5
same,CCL4/MIP-1 beta Concentration,[2]; [15],17703.4 pg/mL and 25629.7 pg/mL and 19701.2 pg/mL
same,CCL4/MIP-1 beta MFI,[2]; [15],11.5 and 14.0 and 12.0
same,CCL4/MIP-1 beta Concentration,[2]; [16],16072.8 pg/mL
same,CCL4/MIP-1 beta MFI,[2]; [16],11.2
same,CCL4/MIP-1 beta Concentration,[2]; [17],17703.4 pg/ml and 15257.5 pg/ml (2×)
same,CCL4/MIP-1 beta MFI,[2]; [17],11.5 and 11.0 (2×)
same,CCL4/MIP-1 beta Concentration,[2]; [18],16738.7 pg/mL
same,CCL4/MIP-1 beta MFI,[2]; [18],11.3
same,CCL4/MIP-1 beta Concentration,[2]; [19],15257.5 pg/ml (2×) and 19701.2 pg/ml
same,CCL4/MIP-1 beta MFI,[2]; [19],11.0 (2×) and 12.0
same,CCL4/MIP-1 beta Concentration,[2]; [20],18220.0 pg/mL
same,CCL4/MIP-1 beta MFI,[2]; [20],11.7
same,CCL4/MIP-1 beta Concentration,[2]; [21],15257.5 pg/ml and 19701.2 pg/ml (2×)
same,CCL4/MIP-1 beta MFI,[2]; [21],11.0 and 12.0 (2×)
same,CCL4/MIP-1 beta MFI,"[2]; PBMC + test article 0.5 nM, no LPS, Mean",6.0
same,CCL4/MIP-1 beta Concentration,[2]; [22],<148.02 pg/mL
same,CCL4/MIP-1 beta MFI,[2]; [22],6.0
same,CCL4/MIP-1 beta MFI,"[2]; PBMC + test article 5 nM, no LPS, Mean",6.5
same,CCL4/MIP-1 beta Concentration,[2]; [23],<148.02 pg/mL
same,CCL4/MIP-1 beta MFI,[2]; [23],7.0 and 6.0
same,CCL4/MIP-1 beta MFI,"[2]; PBMC + test article 0.05 uM, no LPS, Mean",5.5
same,CCL4/MIP-1 beta Concentration,[2]; [24],<148.02 pg/mL
same,CCL4/MIP-1 beta MFI,[2]; [24],6.0 and 5.0
same,CCL4/MIP-1 beta MFI,"[2]; PBMC + test article 50 nM, no LPS, Mean",7.5
same,CCL4/MIP-1 beta Concentration,[2]; [25],<148.02 pg/mL
same,CCL4/MIP-1 beta MFI,[2]; [25],8.0 and 7.0
same,CCL4/MIP-1 beta MFI,"[2]; PBMC + test article 500 nM, no LPS, Mean",6.5
same,CCL4/MIP-1 beta Concentration,[2]; [26],<148.02 pg/mL
same,CCL4/MIP-1 beta MFI,[2]; [26],6.0 and 7.0
same,LPS-induced CCL-4 (in words),[2]; [9],significantly reduced
